In patent publication US12202829B2, “Heterocyclic compound” (FIMECS, Inc., priority 2018, dated 2025):
Where a name gives a salt, the structure may show the parent alone.

What follows are molecules tested against T1, human XIAP_BIR3 domain purified protein (Homo sapiens, UniProt P98170) (assay: XIAP binding inhibitory activity, HTRF method with b-Smac ligand). Conditions: test compound 3 μM; first symbol of the cell; read-out: XIAP binding inhibition rate when the concentration of the test compound is 3 μM.
T1 construct: purchased R & D
T1 sequence (P98170 252-356 limits assumed): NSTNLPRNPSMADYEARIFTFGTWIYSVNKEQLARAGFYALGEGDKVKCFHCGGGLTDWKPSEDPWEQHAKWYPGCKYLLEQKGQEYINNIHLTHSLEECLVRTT
Experimental: Human XIAP binding inhibitory activity were measured by the Homogeneous Time Resolved Fluorescence (HTRF) method with using commercially available human XIAP_BIR3 domain purified protein (R & D) and as a ligand a Smac N-terminal peptide (AVPIAQK (SEQ ID NO: 1)) (hereinafter referred to as “b-Smac”; Peptide Research Laboratories, Inc.) biotinylated at the C-terminus according to a conventional method.
The HTRF method will be described in detail below. A test compound diluted with a reaction buffer was added to a 384-well white shallow bottom plate (Greiner 784076) at 1 μL/well and flash centrifuged for 30 seconds. Subsequently, human XIAP_BIR3 domain purified protein was diluted with the reaction buffer (25 mM HEPES Buffer containing 100 mM NaCl, 0.1% BSA, and 0.1% triton X-100, pH 7.5) to obtain a 90 nM sample diluent, and the resultant sample diluent was added to the above-mentioned white superficial plate at 4.5 μL/well and flash centrifuged for 30 seconds. Subsequently, b-Smac diluted to 90 nM with the reaction buffer was added to the above-mentioned white superficial plat at 4.5 μL/well and flash centrifuged for 30 seconds. A mixed solution of Anti-6 HIS-Cryptate (Eu3+Cryptate-conjugated mouse monoclonal antibody anti-6 Histidine; cisbio) and Streptavidin-XL^ent! (Highgrade XL665-conjugated streptavidin; cisbio) both diluted 100-fold with HTRF detection buffer (cisbio) at a volume ratio of 1:1 was added to the above white superficial plate at 10 μL/well. After flash centrifuging the white shallow bottom plate for 30 seconds, the white shallow bottom plate was left at room temperature for 4 hours or more in the dark. The white superficial plate after being left was subjected to fluorescence intensity measurement (excitation wavelength: 320 nm, fluorescence wavelength: 665 nm and 615 nm) by EnVision (Perkin Elmer).
The binding inhibition rate (%) was calculated based on the HTRF ratio in the presence of the test compound to the HTRF ratio in the absence of the test compound (fluorescence intensity at 665 nm/fluorescence intensity at 615 nm).

| Compound | inhibition at 3 µM [%] |
| --- | --- |
| CN[C@@H](C)C(=O)N[C@H](C(=O)N1CCN(C(=O)c2c(OCCOCCOCCO)c3cc(F)c(F)cc3n2C)CC1)C1CCCCC1 (stereo in doubt) [Example 62, (S)—N—((S)-1-Cyclohexyl-2-(4-(5,6-difluoro-3-(2-(2-(2-hydroxyethoxy)ethoxy)ethoxy)-1-methyl-1H-indole-2-carbonyl)piperazin-1-yl)-2-oxoethyl)-2-(methylamino)propanamide] | 25 to 50 |
| CN[C@@H](C)C(=O)N[C@H](C(=O)N1CCN(C(=O)c2cc3ccc(OC)cc3n2C)CC1)C1CCCCC1 [Example 1, (S)—N—((S)-1-Cyclohexyl-2-(4-(6-methoxy-1-methyl-1H-indole-2-carbonyl)piperazin-1-yl)-2-oxoethyl)-2-(methylamino)propanamide Hydrochloride] | > 75 |
| CN[C@@H](C)C(=O)N[C@H](C(=O)N1CCN(C(=O)c2ccn3nccc3c2)CC1)C1CCCCC1 [Example 2, (S)-N-((S)-1-cyclohexyl-2-oxo-2-(4-(pyrazolo[1,5-a]pyridine-5-carbonyl)piperazin-1-yl)ethyl)-2-(methylamino)propanamide] | 25 to 50 |
| CN[C@@H](C)C(=O)N[C@H](C(=O)N1CCN(C(=O)c2cc3ccnn3cc2C)CC1)C1CCCCC1 [Example 3, (S)-N-((S)-1-cyclohexyl-2-(4-(6-methylpyrazolo[1,5-a]pyridine-5-carbonyl)piperazin-1-yl)-2-oxoethyl)-2-(methylamino)propanamide] | 25 to 50 |
| CN[C@@H](C)C(=O)N[C@H](C(=O)N1CCN(C(=O)c2ccn3nccc3c2C)CC1)C1CCCCC1 [Example 4, (S)-N-((S)-1-cyclohexyl-2-(4-(4-methylpyrazolo[1,5-a]pyridine-5-carbonyl)piperazin-1-yl)-2-oxoethyl)-2-(methylamino)propanamide] | 50 to 75 |
| CN[C@@H](C)C(=O)N[C@H](C(=O)N1CCN(C(=O)c2ccn3nccc3c2F)CC1)C1CCCCC1 [Example 5, (S)-N-((S)-1-cyclohexyl-2-(4-(4-fluoropyrazolo[1,5-a]pyridine-5-carbonyl)piperazin-1-yl)-2-oxoethyl)-2-(methylamino)propanamide] | 25 to 50 |
| CN[C@@H](C)C(=O)N[C@H](C(=O)N1CCN(C(=O)c2cc3ccnn3cc2F)CC1)C1CCCCC1 [Example 6, (S)-N-((S)-1-cyclohexyl-2-(4-(6-fluoropyrazolo[1,5-a]pyridine-5-carbonyl)piperazin-1-yl)-2-oxoethyl)-2-(methylamino)propanamide] | > 25 |
| CN[C@@H](C)C(=O)N[C@H](C(=O)N1CCN(C(=O)c2cc3ccccn3c2)CC1)C1CCCCC1 [Example 7, (S)-N-((S)-1-cyclohexyl-2-(4-(indolizine-2-carbonyl)piperazin-1-yl)-2-oxoethyl)-2-(methylamino)propanamide] | > 75 |
| CN[C@@H](C)C(=O)N[C@H](C(=O)N1CCN(C(=O)c2cc(OCCOC)nn2C)CC1)C1CCCCC1 [Example 8, (S)-N-((S)-1-cyclohexyl-2-(4-(3-(2-methoxyethoxy)-1-methyl-1H-pyrazole-5-carbonyl)piperazin-1-yl)-2-oxoethyl)-2-(methylamino)propanamide] | > 25 |
| CN[C@@H](C)C(=O)N[C@H](C(=O)N1CCN(C(=O)c2cc(C3CC3)nn2C)CC1)C1CCCCC1 [Example 9, (S)-N-((S)-1-cyclohexyl-2-(4-(3-cyclopropyl-1-methyl-1H-pyrazole-5-carbonyl)piperazin-1-yl)-2-oxoethyl)-2-(methylamino)propanamide] | > 25 |
| CCCc1cc(C(=O)N2CCN(C(=O)[C@@H](NC(=O)[C@H](C)NC)C3CCCCC3)CC2)n(C)n1 [Example 10, (S)-N-((S)-1-cyclohexyl-2-(4-(1-methyl-3-propyl-1H-pyrazole-5-carbonyl)piperazin-1-yl)-2-oxoethyl)-2-(methylamino)propanamide] | > 25 |
| CN[C@@H](C)C(=O)N[C@H](C(=O)N1CCN(C(=O)c2cc(C(F)(F)F)nn2C)CC1)C1CCCCC1 [Example 11, (S)-N-((S)-1-cyclohexyl-2-(4-(1-methyl-3-(trifluoromethyl)-1H-pyrazole-5-carbonyl)piperazin-1-yl)-2-oxoethyl)-2-(methylamino)propanamide] | > 25 |
| CCOc1cc(C(=O)N2CCN(C(=O)[C@@H](NC(=O)[C@H](C)NC)C3CCCCC3)CC2)n(C)n1 [Example 12, (S)-N-((S)-1-cyclohexyl-2-(4-(3-ethoxy-1-methyl-1H-pyrazole-5-carbonyl)piperazin-1-yl)-2-oxoethyl)-2-(methylamino)propanamide] | > 25 |
| CN[C@@H](C)C(=O)N[C@H](C(=O)N1CCN(C(=O)c2cc3cccnc3n2C)CC1)C1CCCCC1 [Example 13, (S)-N-((S)-1-cyclohexyl-2-(4-(1-methyl-1H-pyrrolo[2,3-b]pyridine-2-carbonyl)piperazin-1-yl)-2-oxoethyl)-2-(methylamino)propanamide] | > 25 |
| CN[C@@H](C)C(=O)N[C@H](C(=O)N1CCN(C(=O)c2cc3ccc(F)cc3n2C)CC1)C1CCCCC1 [Example 14, (S)-N-((S)-1-cyclohexyl-2-(4-(6-fluoro-1-methyl-1H-indole-2-carbonyl)piperazin-1-yl)-2-oxoethyl)-2-(methylamino)propanamide] | 50 to 75 |
| CN[C@@H](C)C(=O)N[C@H](C(=O)N1CCN(C(=O)c2cc3cc(F)ccc3n2C)CC1)C1CCCCC1 [Example 15, (S)-N-((S)-1-cyclohexyl-2-(4-(5-fluoro-1-methyl-1H-indole-2-carbonyl)piperazin-1-yl)-2-oxoethyl)-2-(methylamino)propanamide] | > 75 |
| CN[C@@H](C)C(=O)N[C@H](C(=O)N1CCN(C(=O)c2cc3cccc(C)c3n2C)CC1)C1CCCCC1 [Example 16, (S)-N-((S)-1-cyclohexyl-2-(4-(1,7-dimethyl-1H-indole-2-carbonyl)piperazin-1-yl)-2-oxoethyl)-2-(methylamino)propanamide] | 50 to 75 |
| CN[C@@H](C)C(=O)N[C@H](C(=O)N1CCN(C(=O)c2ccc3cnn(C)c3c2)CC1)C1CCCCC1 [Example 17, (S)-N-((S)-1-cyclohexyl-2-(4-(1-methyl-1H-indazole-6-carbonyl)piperazin-1-yl)-2-oxoethyl)-2-(methylamino)propanamide] | > 25 |
| CN[C@@H](C)C(=O)N[C@H](C(=O)N1CCN(C(=O)c2ccc3nc(C)n(C)c3c2)CC1)C1CCCCC1 [Example 18, (S)-N-((S)-1-cyclohexyl-2-(4-(1,2-dimethyl-1H-benzo[d]imidazole-6-carbonyl)piperazin-1-yl)-2-oxoethyl)-2-(methylamino)propanamide] | > 25 |
| CN[C@@H](C)C(=O)N[C@H](C(=O)N1CCN(C(=O)c2ccc3nc(C)nn3c2)CC1)C1CCCCC1 [Example 19, (S)-N-((S)-1-cyclohexyl-2-(4-(2-methyl-[1,2,4]triazolo[1,5-a]pyridine-6-carbonyl)piperazin-1-yl)-2-oxoethyl)-2-(methylamino)propanamide] | > 25 |
| CN[C@@H](C)C(=O)N[C@H](C(=O)N1CCN(C(=O)c2ccc3cc(C)cn3c2)CC1)C1CCCCC1 [Example 20, (S)-N-((S)-1-cyclohexyl-2-(4-(2-methylindolizine-6-carbonyl)piperazin-1-yl)-2-oxoethyl)-2-(methylamino)propanamide] | > 75 |
| CN[C@@H](C)C(=O)N[C@H](C(=O)N1CCN(C(=O)c2ccn3cc(C)nc3c2)CC1)C1CCCCC1 [Example 21, (S)-N-((S)-1-cyclohexyl-2-(4-(2-methylimidazo[1,2-a]pyridine-7-carbonyl)piperazin-1-yl)-2-oxoethyl)-2-(methylamino)propanamide] | > 25 |
| CN[C@@H](C)C(=O)N[C@H](C(=O)N1CCN(C(=O)c2ccc3nn(C)cc3c2)CC1)C1CCCCC1 [Example 22, (S)-N-((S)-1-cyclohexyl-2-(4-(2-methyl-2H-indazole-5-carbonyl)piperazin-l-yl)-2-oxoethyl)-2-(methylamino)propanamide] | 25 to 50 |
| CN[C@@H](C)C(=O)N[C@H](C(=O)N1CCN(C(=O)c2ccc3c(C)n(C)nc3c2)CC1)C1CCCCC1 [Example 23, (S)-N-((S)-1-cyclohexyl-2-(4-(2,3-dimethyl-2H-indazole-6-carbonyl)piperazin-1-yl)-2-oxoethyl)-2-(methylamino)propanamide] | > 25 |
| CN[C@@H](C)C(=O)N[C@H](C(=O)N1CCN(C(=O)c2cc3ccc(OC)cc3n2C)C[C@H]1C)C1CCCCC1 [Example 24, (S)—N—((S)-1-cyclohexyl-2-((R)-4-(6-methoxy-1-methyl-1H-indole-2-carbonyl)-2-methylpiperazin-1-yl)-2-oxoethyl)-2-(methylamino)propanamide Hydrochloride] | > 75 |
